Data set [1] is described as follows: Hygroscopicity. The class given is physicochemical.
Data set [2] can be described thus: TGA-DSC analysis coupled to mass spectrometry (thermal behavior, loss of water). The following applies: TGA-DSC from 30° C., heating rate 5K/Min. Type of data set: physicochemical. In general terms: DSC measures the heat that a sample takes up or gives off during a temperature scan.
Experimental: A TGA-DSC analysis (coupled to mass spectrometry) was performed on this salt in order to observe its thermal behavior, and to determine its water content.
A TGA-DSC analysis (coupled to mass spectroscopy) was performed on this phase (FIG. 8).
A TGA-DSC analysis coupled to a Mass Spectroscopy (MS) was performed on this phase (FIG. 10).
The conditions of data set [3]: cited from earlier work.
Data set [4] is described as follows: Differential scanning calorimetry (thermal stability). The class given is physicochemical. The settings on record: DSC from −20° C. up to 180° C., heating rate 5K/min. Here is the method: FIG. 3: DSC pattern of ABSD.(L-lysine)2. Said experiment was performed from −20° C. up to 180° C., heating rate=5K/min.
The phase isolated, so called “ABSD L-lysinate”, was analyzed by DSC (FIG. 3). […] Said results further confirm that the crystalline form is anhydrous.

The nature of data set [5]: Karl Fischer titration (water content). Type of data set: physicochemical. The source says:
A Karl Fischer titration is a classical titration method to determine the trace amounts of water in a sample. A Karl Fischer titration has confirmed the DSC analysis, by determining a water content of 0.06% inside the sample (i.e. very small amount of adsorbed water).

Data set [6] in a line: Solubility in water and other solvents. Type of data set: physicochemical.

For `NCCCCC(N)C(=O)O` (racemic) [DL-lysine, reference compound], the hygroscopicity entry in data set [1] is reported as “high hygroscopicity up to deliquescence”.
In the case of `N[C@@H](CCS(=O)(=O)[O-])CSSC[C@@H](N)CCS(=O)(=O)O.[Na+]` [sodium hydrogen salt of ABSD], in data set [2], the “temperature of loss of water” value is “circa 35 °C”.
With `N[C@H](CCS(=O)(=O)O)CSSC[C@H](N)CCS(=O)(=O)O` [trihydrate phase], in data set [3] (as described in WO 2012/045849), the “temperature at which dehydration toward the dihydrate form starts” value was “below 30 °C”.
Consider `N[C@H](CCS(=O)(=O)O)CSSC[C@H](N)CCS(=O)(=O)O` [ABSD zwitterion, (3S,3S′) 4,4′-disulfanediylbis(3-aminobutane 1-sulfonic acid)], for which the “time for the mixture of hydrated forms to evolve toward the trihydrate phase” value in data set [3] (stored at circa 20° C. and RH>50%, WO 2012/045849) is “less than two days”.
Take `NCCCC[C@H](N)C(=O)O.NCCCC[C@H](N)C(=O)O.N[C@@H](CCS(=O)(=O)O)CSSC[C@@H](N)CCS(=O)(=O)O` [ABSD L-lysinate]: in data set [1], the “hygroscopy compared to the ABSD zwitterionic form” value is given as “lower”. Besides, in data set [4], the “thermal stability: no thermal phenomenon up to” value was “up to 180 °C”. The same compound displayed a water content in data set [5] of 0.06%. Also, the “aqueous solubility compared to the ABSD trihydrate” value in data set [6] is “higher”. Besides, the “aqueous solubility compared to the ABSD zwitterionic form” value in data set [6] (room temperature) was “higher”.

The values are drawn from patent US9487477B2, “Crystalline phase of (3S,3S′) 4,4′-disulfanediylbis(3-aminobutane 1-sulfonic acid) with L-lysine” (Quantum Genomics, priority 2012, dated 2016).
